From BindingDB's records for doi:10.1016/S0960-894X(00)80224-3 (1992)

Each compound was assayed against Gastrin/cholecystokinin type B receptor (Cavia porcellus) (assay: Displacement of [125I]CCK-OP radioligand from Cholecystokinin type B receptor of guinea pig cortical membranes).
`O=C(N[C@@H]1C(=O)N(c2ccccc2F)C[C@@H]1C(=O)O)c1ccc2ccccc2c1` [(3S,4S)-1-(2-Fluoro-phenyl)-4-[(naphthalene-2-carbonyl)-amino]-5-oxo-pyrrolidine-3-carboxylic acid] gave an IC50 greater than 10 µM.
`O=C(N[C@@H]1C(=O)N(c2ccccc2)C[C@@H]1C(=O)O)c1ccc2ccccc2c1` [(3S,4S)-4-[(Naphthalene-2-carbonyl)-amino]-5-oxo-1-phenyl-pyrrolidine-3-carboxylic acid] showed an IC50 greater than 10 µM.
`O=C(N[C@H]1C(=O)N(c2ccccc2)C[C@@H]1C(=O)O)c1ccc2ccccc2c1` [(3S,4R)-4-[(Naphthalene-2-carbonyl)-amino]-5-oxo-1-phenyl-pyrrolidine-3-carboxylic acid] was tested, and the IC50 was greater than 10 µM.
`O=C(N[C@@H]1C(=O)N(c2ccccc2F)C[C@@H]1C(=O)O)c1cnc2ccccc2c1` [(3S,4S)-1-(2-Fluoro-phenyl)-5-oxo-4-[(quinoline-3-carbonyl)-amino]-pyrrolidine-3-carboxylic acid] showed an IC50 greater than 10 µM.
